Read-outs that look alike come from different tables or passages of the source. Blank lines part the entries; values can stand above or below the compound they belong to.
Legend:
OR5AN1 = target: T1, OR5AN1 (Homo sapiens, UniProt Q8NGI8); test: OR5AN1 cell-based cAMP HTRF assay; settings: for Emax: read-out: OR5AN1 % Efficacy
T1 construct: Lucy (cleavable signal peptide) (N); FLAG (N); Rho (first 20 aa of bovine rhodopsin) (N); expressed in transfected cells
T1 sequence (Q8NGI8 1-311): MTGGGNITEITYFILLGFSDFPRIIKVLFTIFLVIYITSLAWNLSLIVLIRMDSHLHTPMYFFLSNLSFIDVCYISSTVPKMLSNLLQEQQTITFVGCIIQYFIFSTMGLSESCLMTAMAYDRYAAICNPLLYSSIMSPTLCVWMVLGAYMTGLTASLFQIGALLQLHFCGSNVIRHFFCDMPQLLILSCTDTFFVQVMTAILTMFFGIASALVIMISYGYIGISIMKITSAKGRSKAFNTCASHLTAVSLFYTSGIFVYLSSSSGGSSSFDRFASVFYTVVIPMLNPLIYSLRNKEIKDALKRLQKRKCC

OR1N2 = target: T2, OR1N2 (Homo sapiens, UniProt Q8NGR9, T287M/V230G/W23R); test: OR1N2 cell-based cAMP HTRF assay; settings: read-out: OR1N2 % Efficacy
T2 construct: Lucy (cleavable signal peptide) (N); FLAG (N); Rho (first 20 aa of bovine rhodopsin) (N); expressed in transfected cells
T2 sequence (Q8NGR9 1-316 W23R/V230G/T287M): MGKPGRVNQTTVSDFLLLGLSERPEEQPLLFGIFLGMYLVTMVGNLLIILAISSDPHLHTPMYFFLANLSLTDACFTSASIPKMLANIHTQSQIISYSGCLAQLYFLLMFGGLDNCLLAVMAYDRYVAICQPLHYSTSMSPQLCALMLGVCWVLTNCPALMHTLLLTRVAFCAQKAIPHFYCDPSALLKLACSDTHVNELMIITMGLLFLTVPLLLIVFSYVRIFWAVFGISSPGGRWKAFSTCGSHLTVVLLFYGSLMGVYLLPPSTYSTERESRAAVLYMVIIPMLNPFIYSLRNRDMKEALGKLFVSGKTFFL

OR5A1 = target: T3, OR5A1 (Homo sapiens, UniProt Q8NGJ0); test: OR5A1 cell-based cAMP HTRF assay
T3 construct: Lucy (cleavable signal peptide) (N); FLAG (N); Rho (first 20 aa of bovine rhodopsin) (N); expressed in transfected cells
T3 sequence (Q8NGJ0 1-315): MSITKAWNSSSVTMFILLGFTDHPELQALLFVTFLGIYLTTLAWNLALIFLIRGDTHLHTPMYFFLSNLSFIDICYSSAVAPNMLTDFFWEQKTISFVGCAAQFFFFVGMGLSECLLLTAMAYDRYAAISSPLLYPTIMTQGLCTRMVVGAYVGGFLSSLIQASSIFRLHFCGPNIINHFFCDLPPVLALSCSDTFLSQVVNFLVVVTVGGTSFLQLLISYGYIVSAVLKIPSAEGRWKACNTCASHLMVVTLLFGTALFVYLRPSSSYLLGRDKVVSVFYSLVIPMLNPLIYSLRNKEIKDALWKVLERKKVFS

OR7A17 = target: T4, OR7A17 (Homo sapiens, UniProt O14581); test: OR7A17 cell-based cAMP HTRF assay; settings: FIG. 1
T4 construct: Lucy (cleavable signal peptide) (N); FLAG (N); Rho (first 20 aa of bovine rhodopsin) (N); expressed in transfected cells
T4 sequence (O14581 1-309): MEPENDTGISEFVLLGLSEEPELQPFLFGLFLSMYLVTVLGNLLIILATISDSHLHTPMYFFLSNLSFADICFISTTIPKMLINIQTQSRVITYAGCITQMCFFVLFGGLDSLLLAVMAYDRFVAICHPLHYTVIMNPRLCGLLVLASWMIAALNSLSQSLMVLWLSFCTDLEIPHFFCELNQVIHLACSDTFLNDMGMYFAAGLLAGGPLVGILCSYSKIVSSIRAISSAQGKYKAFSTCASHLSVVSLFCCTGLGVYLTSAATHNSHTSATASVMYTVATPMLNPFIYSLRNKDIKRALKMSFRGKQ

OR8D1 = target: T5, OR8D1 (Homo sapiens, UniProt Q8WZ84); test: OR8D1 cell-based cAMP HTRF assay; settings: dose-response, 100% = full agonist; for Emax: read-out: OR8D1 % Efficacy
T5 construct: Lucy (cleavable signal peptide) (N); FLAG (N); Rho (first 20 aa of bovine rhodopsin) (N); expressed in transfected cells
T5 sequence (Q8WZ84 1-308): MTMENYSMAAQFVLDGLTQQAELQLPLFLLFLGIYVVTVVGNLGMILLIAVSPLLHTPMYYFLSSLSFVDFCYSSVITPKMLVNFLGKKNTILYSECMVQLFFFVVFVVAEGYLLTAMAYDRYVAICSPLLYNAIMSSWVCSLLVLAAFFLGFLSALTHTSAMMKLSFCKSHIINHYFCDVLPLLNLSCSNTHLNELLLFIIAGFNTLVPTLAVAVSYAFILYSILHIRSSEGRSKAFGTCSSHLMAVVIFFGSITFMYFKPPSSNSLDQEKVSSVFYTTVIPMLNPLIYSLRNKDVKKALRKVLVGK

OR1C1 = target: T6, OR1C1 (Homo sapiens, UniProt Q15619); test: OR1C1 cell-based cAMP HTRF assay; settings: dose-response; 100% = full agonist; read-out: OR1C1 % Efficacy
T6 construct: Lucy (cleavable signal peptide) (N); FLAG (N); Rho (first 20 aa of bovine rhodopsin) (N); expressed in transfected cells
T6 sequence (Q15619 1-314): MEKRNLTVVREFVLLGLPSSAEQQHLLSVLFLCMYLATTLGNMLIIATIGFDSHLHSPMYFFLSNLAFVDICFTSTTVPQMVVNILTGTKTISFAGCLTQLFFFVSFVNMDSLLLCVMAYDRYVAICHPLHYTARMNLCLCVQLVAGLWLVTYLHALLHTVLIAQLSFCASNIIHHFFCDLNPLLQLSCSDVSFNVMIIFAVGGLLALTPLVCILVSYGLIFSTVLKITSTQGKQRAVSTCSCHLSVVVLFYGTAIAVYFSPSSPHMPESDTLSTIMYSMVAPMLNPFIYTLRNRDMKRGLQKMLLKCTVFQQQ

OR10J5 = target: T7, OR10J5 (Homo sapiens, UniProt Q8NHC4); test: OR10J5 cell-based cAMP HTRF assay; settings: for Emax: read-out: OR10J5 % Efficacy
T7 construct: Lucy (cleavable signal peptide) (N); FLAG (N); Rho (first 20 aa of bovine rhodopsin) (N); expressed in transfected cells
T7 sequence (Q8NHC4 1-309): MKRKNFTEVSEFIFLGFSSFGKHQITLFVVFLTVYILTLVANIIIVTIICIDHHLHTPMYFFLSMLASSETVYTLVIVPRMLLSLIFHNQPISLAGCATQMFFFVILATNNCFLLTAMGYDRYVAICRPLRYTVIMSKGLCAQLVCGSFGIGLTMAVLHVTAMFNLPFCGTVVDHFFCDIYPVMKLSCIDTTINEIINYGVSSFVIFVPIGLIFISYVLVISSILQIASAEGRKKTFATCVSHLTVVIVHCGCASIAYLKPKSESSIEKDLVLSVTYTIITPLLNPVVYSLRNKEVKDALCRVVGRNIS

OR5B12 = target: T8, OR5B12 (Homo sapiens, UniProt Q96R08); test: OR5B12 cell-based cAMP HTRF assay; settings: dose-response; 100% = full agonist
T8 construct: Lucy (cleavable signal peptide) (N); FLAG (N); Rho (first 20 aa of bovine rhodopsin) (N); expressed in transfected cells
T8 sequence (Q96R08 1-314): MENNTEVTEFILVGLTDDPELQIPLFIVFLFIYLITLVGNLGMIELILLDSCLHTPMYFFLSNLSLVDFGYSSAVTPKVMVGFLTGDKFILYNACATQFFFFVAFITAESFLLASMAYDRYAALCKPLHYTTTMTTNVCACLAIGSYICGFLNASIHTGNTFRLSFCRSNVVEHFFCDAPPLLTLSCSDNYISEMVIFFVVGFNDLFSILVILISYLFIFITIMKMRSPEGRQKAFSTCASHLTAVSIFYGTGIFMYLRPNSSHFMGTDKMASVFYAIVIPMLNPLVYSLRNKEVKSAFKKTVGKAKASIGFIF

[1] = dose-response, 100% = full agonist

Compound: 3-methylcyclopentadec-4-en-1-one; 3-methylcyclopentadec-5-en-1-one [Muscenone delta]
OR5AN1 % Efficacy (OR5AN1; [1]): 86%

Compound: O=C1CCCCCCCCCCCC(=O)OCCO1 [Astrotone, 1,4-dioxacycloheptadecane-5,17-dione]
Emax (OR1N2; [1]): 59%

Compound: O=C1CCCCCCCC=CCCCCCCC1 [Civetone, cycloheptadec-9-en-1-one]
Emax (OR1N2): 94%

Compound: C=CC(C)(O)CCC=C(C)CC (stereo not drawn) [Ethyl Linalool, 3,7-dimethylnona-1,6-dien-3-ol]
Emax (OR1C1): 99%

Compound: O=C1CCC=CCCCCCCCCCC1 [Exaltenone, cyclopentadec-4-en-1-one]
Emax (OR5AN1; [1]): 86%

Compound: CCCCC[C@@H]1C(=O)CC[C@@H]1CC(=O)OC [Hedione, methyl 2-[(1~{R},2~{S})-3-oxo-2-pentylcyclopentyl]acetate]
OR5B12 % Efficacy (OR5B12): 86%

Compound: CC(C)(O)CCCC1=CCC(C=O)CC1 (stereo not drawn) [Lyral, 3-(4-hydroxy-4-methylpentyl)cyclohex-3-ene-1-carbaldehyde; 4-(4-hydroxy-4-methylpentyl)cyclohex-3-ene-1-carbaldehyde]
Emax (OR10J5): 100%

Compound: CC(=CCCC=O)CCCC(C)(C)O [Mahonial, 9-hydroxy-5,9-dimethyldec-4-enal]
Emax (OR10J5; [1]): 96%

Compound: CC(=O)c1c(C)c([N+](=O)[O-])c(C(C)(C)C)c([N+](=O)[O-])c1C [Musk ketone, 1-(4-~{tert}-butyl-2,6-dimethyl-3,5-dinitrophenyl)ethanone]
Emax (OR5AN1; [1]): 100%

Compound: Cc1c([N+](=O)[O-])c(C)c([N+](=O)[O-])c(C(C)(C)C)c1[N+](=O)[O-] [Musk xylol, 1-~{tert}-butyl-3,5-dimethyl-2,4,6-trinitrobenzene]
OR5AN1 % Efficacy (OR5AN1): 97%

Compound: CC1=C(O)C(=O)OC1C (stereo not drawn) [Sotolone, 4-hydroxy-2,3-dimethyl-2~{H}-furan-5-one]
OR8D1 % Efficacy (OR8D1): 100%

Continued, values first:

Emax (OR1N2; [1]): 100%
Compound: O=C1CCCCCCCC=CCCCCCCO1 [Ambrettolide, 1-oxacycloheptadec-10-en-2-one]

activation of OR5A1 (violet tonality) (OR5A1; FIG. 1): activation
Emax (OR5A1; dose-response, 100% = full agonist, read-out: OR5A1 % Efficacy): 100%
activation of OR7A17 (blonde woody tonality) (OR7A17): activation
Compound: CC(=O)C=CC1=C(C)CCCC1(C)C [Beta-ionone, 4-(2,6,6-trimethylcyclohexen-1-yl)but-3-en-2-one]

Emax (OR8D1): 76%
Compound: CCCC1CC(=O)C=C(C)C1 (stereo not drawn) [Celery ketone, 3-methyl-5-propylcyclohex-2-en-1-one]

Emax (OR8D1): 97%
Compound: CC1=C(O)C(=O)CC1 [Cyclotone, 2-hydroxy-3-methylcyclopent-2-en-1-one]

Emax (OR1C1): 95%
Compound: C=CC(C)(O)CCCC(C)C (stereo not drawn) [Dihydrolinalool, 3,7-dimethyloct-1-en-3-ol]

Emax (OR10J5; [1]): 40%
Compound: CC(C)CC1CC(C)(O)CCO1 (stereo not drawn) [Florol, 4-methyl-2-(2-methylpropyl)oxan-4-ol]

Emax (OR10J5; [1]): 58%
Compound: Cc1ccc2c(c1)CC(C)(CO)C2 (stereo not drawn) [Lilyflore, (2,5-dimethyl-1,3-dihydroinden-2-yl)methanol]

Emax (OR1C1): 100%
Compound: C=CC(C)(O)CCC=C(C)C (stereo not drawn) [Linalool, 3,7-dimethylocta-1,6-dien-3-ol]

OR8D1 % Efficacy (OR8D1): 100%
Compound: CCC1OC(=O)C(O)=C1C (stereo not drawn) [Maple Furanone, 2-ethyl-4-hydroxy-3-methyl-2~{H}-furan-5-one]

Emax (OR5AN1; [1]): 75%
Compound: C[C@@H]1CCCCCCCCCCCCC(=O)C1 [Muscone, (R)-3-methylcyclopentadecanone]

Emax (OR8D1): 80%
Compound: CCC=C1OC(=O)c2ccccc21 [Propylidene phthalide, 3-propylidene-2-benzofuran-1-one]

Emax (OR1C1): 79%
Compound: CCC(C)(O)CCCC(C)C (stereo not drawn) [Tetralinol, 3,7-dimethyloctan-3-ol]

OR5B12 % Efficacy (OR5B12): 98%
Compound: methyl 2-[(1~{S},2~{S})-3-oxo-2-pentylcyclopentyl]acetate; methyl 2-[(1~{R},2~{S})-3-oxo-2-pentylcy clopentyl]acetate [Jasmodione]

OR10J5 % Efficacy (OR10J5; [1]): 100%
Compound: methyl 2-[[3-(4-hydroxy-4-methylpentyl)cyclohex-3-en-1-ylidene]methylamino]benzoate; methyl 2-[[4-(4-hydroxy-4-methylpentyl)cyclohex-3 -en-1-ylidene]methylamino]benzoate [Lyronol 50 dipg]
